Laboratory results reported in US20170247449A1, “THERAPEUTIC METHOD AND MEDICAMENT FOR CANCER PATIENTS BY FOLR1-TARGETING DRUG AND AN ANTAGONIST FOR FOLIC ACID METABOLISM” (KYOWA HAKKO KIRIN CO., LTD, priority 2014, published 2017).

Tests used:
[1] = tested on: FOLR1 expression in IGR-OV1; assay: Expression level of FOLR1 in ovarian cancer cell line after incubation with pemetrexed; type: cell-based, human
Procedure: (§1) After culturing each cell line under the above conditions, cells were detached using TrypLE Express, washed with phosphate buffer saline (PBS) and then suspended in FCM buffer (PBS containing 1 mmol/L EDTA, 0.05% sodium azide and 5% inactivated FCS).
(§2) Next, the cells were seeded in a 96-well plate at 1×10^5 cells per well and centrifuged at 1700 rpm for one minute. After removing the supernatant, an anti-human FOLR1 humanized antibody (HuRA15-7CTAcc antibody) (WO2014/087863) which was prepared at 10 μg/mL with FCM buffer was added to the cells and reacted for 30 minutes at 4° C.
(§3) After washing the cells, Anti-Human IgG-FITC (Jackson) which was diluted 100 times with the FCM buffer was added and reacted for 30 minutes at 4° C. After washing the cells again, the cells were suspended in the FCM buffer. The fluorescence intensities were analyzed with a flow cytometer (Beckman Coulter, Inc., FC500MPL) to determine the mean fluorescence intensity (MFI) of each cell.
(§4) First, SKOV-3 [American Type Culture Collection (hereinafter referred to as ATCC) No. HTB-77], MCAS (JCRB cell No. JCRB0240), NIH:OVCAR-3 (ATCC No. HTB-161) and IGR-OV1 (National Cancer Institute), which are ovarian cancer-derived cell lines, were cultured in the culture medium.

[2] = tested on: FOLR1 expression in SKOV-3; assay: as above; type: cell-based, human
Procedure: as §1, §2, §3, §4

[3] = tested on: FOLR1 expression in OVCAR-3; assay: as above; type: cell-based, human; details: OVCAR-3 [FIG. 2(C)], low folic acid medium, regardless of the final pemetrexed concentration
Procedure: as §1, §2, §3, §4

[4] = tested on: FOLR1 expression in MCAS; assay: as above; type: cell-based, human
Procedure: as §1, §2, §3, §4

[5] = tested on: FOLR1 expression in NCI-H1437; assay: Expression level of FOLR1 in NSCLC cell line after incubation with pemetrexed (flow cytometry, MFI); type: cell-based, human; details: NCI-H1437, low folic acid medium, 72 hours
Procedure: (§5) NSCLC cell lines such as NCI-H522 [American Type Culture Collection (hereinafter referred to as ATCC) No. CRL-5810], NCI-H838 (ATCC No. CRL-5844), NCI-H1437 (ATCC No. CRL-5872) and NCI-H2228 (ATCC No. CRL-5935) were cultured in a culture medium [RPMI1640 (GIBCO), 10% inactivated bovine serum (FCS, GIBCO)].
(§6) Next, cells were detached from culture flasks using TrypLE Express (GIBCO) and suspended in a folic acid-free medium [RPMI 1640 folate-free (GIBCO), 10% inactivated dialyzed FCS (dFCS, GIBCO)]. The cells were seeded to 25-cm^2 tissue culture (TC) flasks at 2.5×10^5 cells/4 mL.
as §1, §2, §3

[6] = tested on: FOLR1 expression in NCI-H838; assay: as above; type: cell-based, human; details: NCI-H838, low folic acid medium, 0, 10 or 1000 nmol/L pemetrexed, 72 hours
Procedure: as §5, §6, §1, §2, §3

[7] = tested on: FOLR1 expression in NCI-H522; assay: as above; type: cell-based, human; details: NCI-H522, low folic acid medium, 0, 10 or 1000 nmol/L pemetrexed, 72 hours
Procedure: as §5, §6, §1, §2, §3

[8] = tested on: FOLR1 expression in NCI-H2228; assay: as above; type: cell-based, human; details: NCI-H2228, low folic acid medium, 72 hours
Procedure: as §5, §6, §1, §2, §3

[9] = in vitro; details: human, MCAS ovarian cancer cells
Procedure: Then, detached cells were suspended in the folic acid-free medium, and the cells were seeded to 175-cm^2 TC flasks at 25×10^5 cells/28 mL. After 24-hour incubation, 14 mL of the 3× low folic acid medium was added, and the final folic acid concentration was adjusted at approximately 22.7 nmol/L. Then, pemetrexed was added to the culture at the final concentration of 0 or 20 nmol/L, and the cells were cultured for further 72 hours.
The cultured cells were detached from the culture flasks using 0.02% EDTA solution (Nacalai), and the cell counts and the viability were measured using Vi-CELL XR 2.01 (Beckman Coulter).

[10] = tested on: FOLR1 expression in HEC-1-B; assay: Expression level of FOLR1 in endometrial cancer cell line after incubation with pemetrexed; type: cell-based, human
Procedure: (§7) Endometrial cancer-derived cell line MES-SA (ATCC No. CRL-1976) and HEC-1-A (ATCC No. HTB-112) were cultured in McCoy's 5A medium (ATCC) containing 10% FCS (GIBCO), and HEC-1-B (ATCC No. HTB-113) was cultured in Eagle's Minimum Essential Medium (ATCC) containing 10% FCS (GIBCO).
(§8) Also, a flow cytometer manufactured by Becton, Dickinson and Company (FACSVerse) was used instead of the flow cytometer manufactured by Beckman Coulter, Inc. (FC500MPL).

[11] = tested on: FOLR1 expression in HEC-1-A; assay: as above; type: cell-based, human
Procedure: as §7, §8

[12] = tested on: FOLR1 expression in MES-SA; assay: as above; type: cell-based, human
Procedure: as §7, §8

[13] = tested on: ovarian cancer cell line MCAS; assay: ADCC activity against pemetrexed-treated MCAS using healthy donor PBMCs (LDH release); type: cell-based, human; details: for ADCC activity against MCAS cultured with pemetrexed versus cultured without pemetrexed: 20 nmol/L pemetrexed, P<0.05
Procedure: (§9) These cells were adjusted at 1×10^4 cells/50 μL using ADCC measurement medium [phenol red-free RPMI1640 (GIBCO), 5% inactivated dFCS (GIBCO)] as target cell solutions.
(§10) Next, heparin-treated peripheral blood of a healthy donor was loaded into a LeucoSep lymphocyte separation tube (Greiner) filled with Lymphoprep (Cosmo Bio), and centrifuged at 1000×g for 20 minutes at room temperature.
(§11) After the centrifugation, the plasma fraction was removed, and the peripheral blood mononuclear cell (PBMC) layer was collected. Then, the cells were washed with the ADCC measurement medium. The PBMCs were adjusted at 2.5×10^5 cells/50 μL using the ADCC measurement medium as an effector cell solution.
HuRA15-7CTAcc antibody and MORAb-003 (farletuzumab) were used as anti-human FOLR1 humanized antibodies. The antibody solutions were prepared at 0.1, 1, 10, 100 and 1000 ng/mL with the ADCC measurement medium, so that the final concentrations of the assay became 0.033, 0.33, 3.3, 33 and 333 ng/mL.
(§12) Fifty μL of each the target cell solution, the effector cell solution, and the antibody solution, which were prepared as described above, were mixed in a U-bottom 96-well plate, so that the total volume of each well was 150 μL. After mixing the wells, the cells were precipitated by centrifugation at 50×g for five minutes at room temperature. These cells were reacted for four hours at 37° C.
(§13) After mixing the wells, the cells were precipitated again by centrifugation. Then, 50 μL of the supernatant of each well was dispensed to a new 96-well plate. The lactate dehydrogenase (LDH) activities of the dispensed supernatant solutions were measured using CytoTox 96 Non-Radioactive Cytotoxicity Assay (Promega) according to the instruction.
(§14) The ADCC activity was calculated by the following equation after subtracting the measured LDH activity value of the well containing the ADCC measurement medium only from the measured LDH activity value of all wells. These values were determined as the corrected LDH activity value of each well.
ADCC Activity (%)=100×(Exp−ET spo)/(T total−D−T spo) [Chem. 1]
Here, Exp is the corrected LDH activity value of a sample; ET spo is the corrected LDH activity value of the well in which the effector cell solution and the target cell solution were mixed; T total is the corrected LDH activity value of the well in which the target cells and the Lysis Solution attached to CytoTox 96 Non-Radioactive Cytotoxicity Assay were mixed; D is the corrected LDH activity value of the Lysis Solution; and T spo is the corrected LDH activity value of the well containing the target cells only.

[14] = tested on: NSCLC cell line NCI-H2228; assay: ADCC activity against pemetrexed-treated NCI-H2228 using healthy donor PBMCs (LDH release); type: cell-based, human; details: for ADCC activity against NCI-H2228 cultured with pemetrexed versus cultured without pemetrexed: 1000 nmol/L pemetrexed, P<0.05
Procedure: as §9, §10, §11
HuRA15-7CTAcc antibody and MORAb-003 (farletuzumab) were used as anti-human FOLR1 humanized antibodies.
as §12, §13, §14
ADCC Activity (%)=100×(Exp−ET spo)/(T total−D−T spo) [Chem. 1] […]
The ADCC activity against the NSCLC cell line NCI-H2228 was evaluated by a similar method to that in Example 3 except for using pemetrexed at the final concentration of 0, 20 or 1000 nmol/L in the culture.

[15] = tested on: ovarian cancer; details: cited from earlier work
[16] = tested on: NSCLC; details: patients with NSCLC; clinical trials terminated; cited from earlier work
[17] = 1000 nmol/L pemetrexed in low folic acid medium
[18] = low folic acid medium, 0, 10 or 1000 nmol/L pemetrexed, 72 hours

Nc1nc2[nH]cc(CCc3ccc(C(=O)N[C@@H](CCC(=O)O)C(=O)O)cc3)c2c(=O)[nH]1 [pemetrexed]
expression level of FOLR1 relative to incubation in the culture medium (NC) ([1]; IGR-OV1, 1000 nmol/L pemetrexed in low folic acid medium): about 2.5 times | expression level of FOLR1, dependence on pemetrexed concentration ([1]; IGR-OV1, low folic acid medium, 0, 10 or 1000 nmol/L pemetrexed): higher concentration of pemetrexed induced higher expression level of FOLR1 | expression level of FOLR1 relative to incubation in the culture medium (NC) ([2]; SKOV-3, 1000 nmol/L pemetrexed in low folic acid medium): about 2.5 times | expression level of FOLR1, dependence on pemetrexed concentration ([2]; SKOV-3, low folic acid medium, 0, 10 or 1000 nmol/L pemetrexed): higher concentration of pemetrexed induced higher expression level of FOLR1 | expression level of FOLR1 compared to incubation in the culture medium [3]: did not increase | expression level of FOLR1 relative to incubation in the culture medium (NC) [4, 17]: about 7 times | expression level of FOLR1, dependence on pemetrexed concentration ([4]; low folic acid medium, 0, 10 or 1000 nmol/L pemetrexed): higher concentration of pemetrexed induced higher expression level of FOLR1 | expression level of FOLR1 relative to incubation with 0 nmol/L pemetrexed ([5]; 10 nmol/L pemetrexed): about 1.5 times | expression level of FOLR1 relative to incubation with 0 nmol/L pemetrexed ([5]; 1000 nmol/L pemetrexed): ~2 times | expression level of FOLR1, dependence on pemetrexed concentration [6]: higher concentration of pemetrexed induced higher expression level of FOLR1 | expression level of FOLR1, dependence on pemetrexed concentration [7]: higher concentration of pemetrexed induced higher expression level of FOLR1 | expression level of FOLR1 relative to incubation with 0 nmol/L pemetrexed ([8]; 10 nmol/L pemetrexed): about 1.5 times | expression level of FOLR1 relative to incubation with 0 nmol/L pemetrexed ([8]; 1000 nmol/L pemetrexed): ~2 times | viability at 72 h, 20 nmol/L [9]: 96.6% | expression level of FOLR1 relative to culture in the culture medium (NC) [10, 17]: approximately 2 times | expression level of FOLR1, dependence on pemetrexed concentration [10, 18]: higher pemetrexed treatment induced higher expression level of FOLR1 | expression level of FOLR1 relative to culture in the culture medium (NC) [11, 17]: approximately 3 times | expression level of FOLR1, dependence on pemetrexed concentration [11, 18]: higher pemetrexed treatment induced higher expression level of FOLR1 | expression level of FOLR1 relative to culture in the culture medium (NC) [12, 17]: approximately 3.5 times | expression level of FOLR1, dependence on pemetrexed concentration [12, 18]: higher pemetrexed treatment induced higher expression level of FOLR1

MORAb-003: existing anti-human FOLR1 humanized IgG1 antibody, sequences described in WO2005/080431
ADCC activity against MCAS cultured with pemetrexed versus cultured without pemetrexed ([13]; healthy donor 2-derived PBMCs, antibody 0.33, 3.3, 33 and 333 ng/mL): significantly higher | ADCC activity against NCI-H2228 cultured with pemetrexed versus cultured without pemetrexed ([14]; antibody 0.0033, 3.3, 33 and 333 ng/mL): significantly higher | clinical benefit ([15]; patients with platinum-resistant ovarian cancer, clinical trials terminated): did not show benefit | clinical response ([15]; patients with platinum-sensitive recurrent ovarian cancer): responses in some patients | clinical benefit [16]: did not show benefit

B1: HuRA15-7CTAcc: anti-human FOLR1 humanized antibody, VH SEQ ID NO: 8, VL SEQ ID NO: 9, expressed in FUT8 knocked out CHO/DG44 (WO2014/087863) (antibody, V domains shown)
VH: EVQLVESGGGLVQPGGSLRLSCAASGFTFTDFYMNWVRQPPGKAPEWLGFIRNKANGYTTEFNPSVKGRFTISRDNSKNSLYLQMNSLKTEDTATYYCARTLYGYAYYYVMDAWGQGTLVTVSS
VL: DIQMTQSPSSLSASLGDRVTITCRTSEDIFRNLAWYQQKPGKAPKLLIYDTNRLADGVPSRFSGSGSGTDYTLTISSLQPEDFATYFCQQYDNYPLTFGQGTKLEIK
modifications: afucosylated; nonS_HuRA15-7CTVH_AA; nonS_HuRA15-7LV3_AA
ADCC activity against MCAS cultured with pemetrexed versus cultured without pemetrexed ([13]; healthy donor 1-derived PBMCs, all the antibody concentrations): significantly higher | ADCC activity against MCAS cultured with pemetrexed versus cultured without pemetrexed ([13]; healthy donor 2-derived PBMCs, antibody 0.033 and 0.33 ng/mL): significantly higher | ADCC activity, dependence on antibody concentration ([13]; MCAS, PBMCs of two healthy donors, antibody 0.033-333 ng/mL): cytotoxicity was observed in association with the antibody concentration | ADCC activity against NCI-H2228 cultured with pemetrexed versus cultured without pemetrexed ([14]; all the antibody concentrations): significantly higher | ADCC activity, dependence on antibody concentration ([14]; NCI-H2228, PBMCs of a healthy donor): cytotoxicity was observed in association with the antibody concentration
